# Laboratory results: paper PMC8786148, “The effects of magainin 2-derived and rationally designed antimicrobial peptides on Mycoplasma pneumoniae” (PLoS ONE, 2022)
# Marks after values point to notes of the source that are not given here.
# Key:
# [1] = test system: Mycoplasma pneumoniae M129-B7; assay: Colorimetric and biofilm assays, strain M129-B7; type: cell-based
# Mycoplasma pneumoniae FH [2] = assay: Killing assay, strain FH; settings: for CFU/mL after treatment, killing assay: 3 d at 37°C
# [3] = test system: Mycoplasma pneumoniae Bru; assay: Killing assay, strain Bru; settings: 3 days; for Titre (CFU/mL), killing assay: initial 10^6 CFU/mL, triplicate, mean
# [4] = test system: Mycoplasma pneumoniae Mac; assay: Killing assay, strain Mac; settings: 3 days; for Titre (CFU/mL), killing assay: initial 10^6 CFU/mL, triplicate, mean
# [5] = test system: Mycoplasma pneumoniae M52; assay: Killing assay, strain M52; settings: 3 days; for Titre (CFU/mL), killing assay: initial 10^6 CFU/mL, triplicate, mean
# [6] = test system: Mycoplasma pneumoniae M129-B7; assay: Killing assay, strain M129-B7; settings: 3 days; for Titre (CFU/mL), killing assay: initial 10^6 CFU/mL, triplicate, mean
# [7] = test system: Mycoplasma pneumoniae Bru; assay: Colorimetric and biofilm assays, strain Bru
# [8] = test system: Mycoplasma pneumoniae Mac; assay: Colorimetric and biofilm assays, strain Mac
# [9] = test system: Mycoplasma pneumoniae M52; assay: Colorimetric and biofilm assays, strain M52
# Mycoplasma pneumoniae FH [10] = assay: Colorimetric assay (absorbance at 560 nm), strain FH; settings: initial 10^5 CFU/mL, 0% CO2, 6-8 days at 37°C, absorbance 560 nm
# Mycoplasma pneumoniae FH [11] = assay: Biofilm assay (crystal violet, absorbance at 550 nm), strain FH; settings: initial 10^5 CFU/mL, 0% CO2, 6-8 days at 37°C
# [12] = test system: M. pneumoniae strains FH, M52, Mac, Bru, and M129-B7; assay: Propidium iodide (PI) uptake assay, membrane disruption; type: cell-based, Mycoplasma pneumoniae; settings: five strains; 10 μmol/L AMP; PI 5 μg/mL in PBS; read every 2 min up to 20 min; triplicate
# Protocol: We performed the PI uptake assays based on the previously described method with modification for M. pneumoniae. M. pneumoniae strains FH, M52, Mac, Bru, and M129-B7 were cultured as described above. Briefly, the 90 mL culture was done in PPLO-based medium for 6 days to observe the medium color change from red to yellow. The mycoplasma in the culture medium was centrifuged at 11,740g for 30 min at 4°C, and the precipitation was suspended in 20 mL phosphate buffered saline (PBS) by passing through a 60 mm-length 25-gauge needle (Top Corporation, Tokyo, Japan) three times. The suspension was centrifuged again at 11,740g for 30 min at 4°C, and 2.25 mL PBS was added to the precipitation. The 2× mycoplasma suspension was prepared by passing through a 60 mm-length 25-gauge needle five times. When using heat-killed M. pneumoniae (HKMp), the 2× suspension was heated at 95°C for 10 min. The 2× PI assay reaction mix based on PBS containing 20 μmol/L of an antimicrobial peptide or saline, and 10 μg/mL PI (Dojindo, Tokyo, Japan). Each assay was performed with a 96-well black flat-bottomed plate (PerkinElmer, Waltham, MA, USA) using a final cell volume of 100 μL prepared by mixing 2× mycoplasma suspension and 2× PI assay reaction mix at 1:1 in volume ratio. The intercalation fluorescence of PI was measured by using an Infinite 200 Pro F Plex microplate reader (Tecan, Zürich, Switzerland) every 2 min, with an excitation filter at 535 nm (half width: 25 nm) and an emission filter at 620 nm (half width: 20 nm). The averages and standard deviations of the fluorescent intensities was calculated, and normalised by an average fluorescence between 10 and 20 min of HKMp as 100% relative fluorescence, and by a minimum average fluorescence between 0 and 20 min of whole data as 0% relative fluorescence.
# Staphylococcus aureus = test system: Staphylococcus aureus; design: method as in PMID 28789896, PMID 31303986, PMID 33369262; settings: previously reported; cited from earlier work
# [13] = test system: Staphylococcus epidermidis; design: method as in PMID 28789896, PMID 31303986, PMID 33369262; settings: previously reported; cited from earlier work
# Escherichia coli = test system: Escherichia coli; design: method as in PMID 28789896, PMID 31303986, PMID 33369262; settings: previously reported; cited from earlier work
# Pseudomonas aeruginosa = test system: Pseudomonas aeruginosa; design: method as in PMID 28789896, PMID 31303986, PMID 33369262; settings: previously reported; cited from earlier work
# [14] = test system: four strains of M. pneumoniae; assay: Biofilm assay, four strains taken together; settings: four strains (Bru, M129-B7, Mac, M52); inferred from enhanced biofilm production below 30 μmol/L
# [15] = colorimetric and biofilm assays
# [16] = up to 30 μmol/L, Shirley-Williams test
compound,measurement,setting,value
C[C@@H]1CN(c2c(F)c(N)c3c(=O)c(C(=O)O)cn(C4CC4)c3c2F)C[C@H](C)N1 [Sparfloxacin],Concentration that completely attenuated the growth,"[1]; strain M129-B7, colorimetric and biofilm assays",0.25 µg/mL
same,"Change in CFU, killing assay with 1 h incubation","Mycoplasma pneumoniae FH [2]; 1 h treatment, SPFX 0.0625-0.25 μg/mL, AMPs 30 μmol/L, S3 Fig",no change in the CFU values
same,"Concentration with significant difference in CFU, killing assay","Mycoplasma pneumoniae FH [2]; initial 10^6 CFU/mL, 3 d incubation, p < 0.005",above 0.0625 μg/mL
same,"CFU/mL after treatment, killing assay","Mycoplasma pneumoniae FH [2]; sparfloxacin 0.0156 μg/mL, initial 10^6 CFU/mL, triplicate, mean",6.57×10^6 CFU/mL
same,"CFU/mL after treatment, killing assay","Mycoplasma pneumoniae FH [2]; sparfloxacin 0.0313 μg/mL, initial 10^6 CFU/mL, triplicate, mean",2.33×10^6 CFU/mL
same,"CFU/mL after treatment, killing assay","Mycoplasma pneumoniae FH [2]; sparfloxacin 0.0625 μg/mL, initial 10^6 CFU/mL, triplicate, mean",1.39×10^5 ^a CFU/mL
same,"CFU/mL after treatment, killing assay","Mycoplasma pneumoniae FH [2]; sparfloxacin 0.125 μg/mL, initial 10^6 CFU/mL, triplicate, mean",1.30×10^4 ^a CFU/mL
same,"CFU/mL after treatment, killing assay","Mycoplasma pneumoniae FH [2]; sparfloxacin 0.25 μg/mL, initial 10^6 CFU/mL, triplicate, mean",5.50×10^3 ^a CFU/mL
same,"Concentration with statistically significant result, killing assay",[3]; p < 0.005,0.0625 µg/mL
same,"Titre (CFU/mL), killing assay",[3]; sparfloxacin 0.0156 μg/mL,2.52×10^6 CFU/mL
same,"Titre (CFU/mL), killing assay",[3]; sparfloxacin 0.0313 μg/mL,1.80×10^6 CFU/mL
same,"Titre (CFU/mL), killing assay",[3]; sparfloxacin 0.0625 μg/mL,8.41×10^5 ^a CFU/mL
same,"Titre (CFU/mL), killing assay",[3]; sparfloxacin 0.125 μg/mL,1.52×10^5 ^a CFU/mL
same,"Titre (CFU/mL), killing assay",[3]; sparfloxacin 0.25 μg/mL,1.81×10^4 ^a CFU/mL
same,"Concentration with statistically significant result, killing assay",[4]; p < 0.005,0.0625 µg/mL
same,"Titre (CFU/mL), killing assay",[4]; sparfloxacin 0.0156 μg/mL,2.66×10^6 CFU/mL
same,"Titre (CFU/mL), killing assay",[4]; sparfloxacin 0.0313 μg/mL,1.86×10^6 CFU/mL
same,"Titre (CFU/mL), killing assay",[4]; sparfloxacin 0.0625 μg/mL,3.88×10^5 ^a CFU/mL
same,"Titre (CFU/mL), killing assay",[4]; sparfloxacin 0.125 μg/mL,2.17×10^4 ^a CFU/mL
same,"Titre (CFU/mL), killing assay",[4]; sparfloxacin 0.25 μg/mL,2.90×10^3 ^a CFU/mL
same,"Concentration with statistically significant result, killing assay",[5]; p < 0.005,0.0625 µg/mL
same,"Titre (CFU/mL), killing assay",[5]; sparfloxacin 0.0156 μg/mL,2.95×10^6 CFU/mL
same,"Titre (CFU/mL), killing assay",[5]; sparfloxacin 0.0313 μg/mL,2.02×10^6 CFU/mL
same,"Titre (CFU/mL), killing assay",[5]; sparfloxacin 0.0625 μg/mL,8.00×10^5 ^a CFU/mL
same,"Titre (CFU/mL), killing assay",[5]; sparfloxacin 0.125 μg/mL,1.99×10^5 ^a CFU/mL
same,"Titre (CFU/mL), killing assay",[5]; sparfloxacin 0.25 μg/mL,3.24×10^4 ^a CFU/mL
same,"Concentration with statistically significant result, killing assay",[6]; p < 0.005,0.0625 µg/mL
same,"Titre (CFU/mL), killing assay",[6]; sparfloxacin 0.0156 μg/mL,3.57×10^6 CFU/mL
same,"Titre (CFU/mL), killing assay",[6]; sparfloxacin 0.0313 μg/mL,2.26×10^6 CFU/mL
same,"Titre (CFU/mL), killing assay",[6]; sparfloxacin 0.0625 μg/mL,8.73×10^5 ^a CFU/mL
same,"Titre (CFU/mL), killing assay",[6]; sparfloxacin 0.125 μg/mL,1.31×10^5 ^a CFU/mL
same,"Titre (CFU/mL), killing assay",[6]; sparfloxacin 0.25 μg/mL,1.12×10^4 ^a CFU/mL
same,Concentration that completely attenuated the growth,[7]; [15],0.25 µg/mL
same,Concentration that completely attenuated the growth,[8]; [15],0.25 µg/mL
same,Concentration that completely attenuated the growth,[9]; [15],0.25 µg/mL
same,"Concentration giving complete repression of the growth, colorimetric assay",Mycoplasma pneumoniae FH [10],higher than 0.0625 μg/mL
same,"Concentration giving complete repression of the growth, biofilm assay","Mycoplasma pneumoniae FH [11]; crystal violet, absorbance 550 nm",> 0.25 µg/mL
H-KKKKKKKKKGGGLLALLALLA-NH2 [Block],Biofilm formation at 16 μmol/L,"[1]; strain M129-B7, biofilm assay, 16 μmol/L",enhancement of biofilm formation
same,Effect in the biofilm assay,"[1]; strain M129-B7, up to 30 μmol/L, Shirley-Williams test",no statistically significant effect
same,Biofilm amount at 30 μmol/L,"[1]; strain printed B129-B7, biofilm assay, 30 μmol/L",no effect
same,PI fluorescence compared with live Mp without peptide,[12],highest fluorescence
same,"MIC, Gram-positive, S. a.",Staphylococcus aureus,12.5 µM
same,"MIC, Gram-positive, S. e",[13],6.25 µM
same,"MIC, Gram-negative, E. c.",Escherichia coli,6.25 µM
same,"MIC, Gram-negative, P. a.",Pseudomonas aeruginosa,6.25 µM
same,Killing assay result compared with saline,"Mycoplasma pneumoniae FH [2]; 30 μmol/L AMP, 3 days, Welch's t test, p < 0.005",significant difference
same,"Cell numbers (CFU/mL) after treatment with antimicrobial peptides, killing assay","Mycoplasma pneumoniae FH [2]; 30 μmol/L AMP, 3 days, initial 10^6 CFU/mL, triplicate, mean, saline 3.59×10^6",5.91×10^5 CFU/mL
same,"Titre (CFU/mL), killing assay","[3]; AMP 30 μmol/L, saline 3.48×10^6",2.32×10^5 ^b CFU/mL
same,"Titre (CFU/mL), killing assay","[4]; AMP 30 μmol/L, saline 4.19×10^6",4.30×10^5 ^b CFU/mL
same,"Titre (CFU/mL), killing assay","[5]; AMP 30 μmol/L, saline 3.62×10^6",3.89×10^5 ^b CFU/mL
same,"Titre (CFU/mL), killing assay","[6]; AMP 30 μmol/L, saline 3.79×10^6",4.84×10^5 ^b CFU/mL
same,Concentration of anti-Mp effect indicated by the biofilm assay,[14],> 30 µmol/L
same,Biofilm formation at 16 μmol/L,"[7]; biofilm assay, 16 μmol/L",enhancement of biofilm formation
same,Biofilm amount at 30 μmol/L,"[7]; biofilm assay, 30 μmol/L",slight drop in the biofilm amount
same,Effect in the biofilm assay,[7]; [16],no statistically significant effect
same,Biofilm formation at 16 μmol/L,"[8]; biofilm assay, 16 μmol/L",enhancement of biofilm formation
same,Biofilm amount at 30 μmol/L,"[8]; biofilm assay, 30 μmol/L",slight drop in the biofilm amount
same,Effect in the biofilm assay,[8]; [16],no statistically significant effect
same,Biofilm formation at 16 μmol/L,"[9]; biofilm assay, 16 μmol/L",enhancement of biofilm formation
same,Biofilm amount at 30 μmol/L,"[9]; biofilm assay, 30 μmol/L",no effect
same,Effect in the biofilm assay,[9]; [16],no statistically significant effect
same,Concentration with statistically significant effect in the biofilm assay,"Mycoplasma pneumoniae FH [11]; p < 0.005, Shirley-Williams test",30 µmol/L
